Like-named read-outs stand apart in the source and are kept apart here. Bounds are passed on as bounds.

This is an account of results in PMC8325362, “Drugs repurposed for COVID-19 by virtual screening of 6,218 drugs and cell-based assay” (Proceedings of the National Academy of Sciences of the …, 2021).

Data set [1] deals with SARS-CoV-2. The data set can be described thus: microbe, parasite or virus in culture. The class given is cell-based. The settings on record: Severe acute respiratory syndrome coronavirus 2, Calu-3, 24 h.
The target in data set [2] is M^pro (Severe acute respiratory syndrome coronavirus 2, UniProt P0DTD1). The class given is biochemical. The settings on record: FRET assay, 0.1 to 50 μM.
Data set [3] can be described thus: Cytotoxicity (CC50) in Calu-3 cells. The settings on record: human.
For data set [4] the following is noted: human, cited from earlier work.
A short description of data set [5]: Cytotoxicity (CC50) in Vero cells. The settings on record: African green monkey.
For data set [6], the system named is SARS-CoV-2. As to the kind of experiment: microbe, parasite or virus in culture. The settings on record: Severe acute respiratory syndrome coronavirus 2, Vero, 24 h, read-out: SARS-CoV-2 IC50 in Vero cells.
Data set [7] can be described thus: in vitro. The settings on record: African green monkey.
Data set [8] in a line: in vitro. The settings on record: human.
The subject of data set [9] is SARS-CoV-2. The data set can be described thus: Checkerboard drug combination assay, SARS-CoV-2 inhibition in Vero cells. In kind it is cell-based. The settings on record: Severe acute respiratory syndrome coronavirus 2, Vero, read-out: Relative viral inhibition (%); for inhibition at 0.69 µM: Tipifarnib 0.69 μM; for inhibition at 1.38 µM: Tipifarnib 1.38 μM; for inhibition at 2.75 µM: Tipifarnib 2.75 μM; for inhibition at 5.5 µM: Tipifarnib 5.50 μM; for inhibition at 11 µM: Tipifarnib 11.00 μM; for inhibition at 22.01 µM: Tipifarnib 22.01 μM; for inhibition at 44.02 µM: Tipifarnib 44.02 μM.

Data set [10] is described as follows: in vitro. The settings on record: African green monkey, Relative cell viability (%).
The subject of data set [11] is SARS-CoV-2. The settings on record: assay validation with reference drugs.
Where [12] appears, read: read-out: Approx. Cmax (maximum serum concentration), oral.

Regarding `CCN1CCN(c2cc(-c3ccc(F)cc3)c3c(n2)CCCCCC3)CC1` [Blonanserin], the IC50 was above 50 µM in data set [1] (Calu-3 cells, MOI 0.5, 24 h) and 12 µM in data set [6]. Besides, in [2], the “inhibitory activity against M^pro” value is “showed inhibitory activities”. In addition, the CC50 at 24 h in data set [3] was above 50 µM; in data set [5], 30.3 µM. For the same compound, the Cmax in data set [4] (setting [12]) was around 0.003 µM.
In the case of `Cc1cc(O)c2c(=O)c3c(O)cc(O)c4c5c(O)cc(O)c6c(=O)c7c(O)cc(C)c8c1c2c(c34)c(c78)c65` [Hypericin], the figures for the concentration for half-maximal inhibition (IC50) in data set [1] (read-out: SARS-CoV-2 IC50 in Calu-3 cells) and in data set [6] were above 50 µM and 19.3 µM, respectively. Besides, the CC50 in data set [7] and in data set [8] was above 50 µM throughout. Besides, the Cmax in [4] (setting [12]) is around 0.008 µM.
Consider `O=C(Nc1cc(C(F)(F)F)cc(C(F)(F)F)c1)Nc1ccc(Br)cc1-c1nnn[nH]1` [NS-3728], for which the IC50 was above 50 µM in [1] (Calu-3 cells, MOI 0.5, 24 h) and 28.4 µM in data set [6]. In addition, the CC50 at 24 h in data set [7] and in data set [8] was above 50 µM each time. The Cmax in data set [4] (in vivo, po) is around 36.5 µM.
Consider `Cn1cncc1[C@@](N)(c1ccc(Cl)cc1)c1ccc2c(c1)c(-c1cccc(Cl)c1)cc(=O)n2C` [Tipifarnib], for which the concentration for half-maximal inhibition (IC50) in data set [1] (Calu-3 cells, MOI 0.5, 24 h) is 4.57 µM; in data set [6], 11 µM. Moreover, the CC50 at 24 h was above 50 µM in data set [3] and 16.6 µM in data set [5]. Also, the Cmax in [4] (setting [12]) is around 8.6 µM. Also, the inhibition at 0.69 µM in [9] (Fig. 4D, Omipalisib 0.00 μM) is 4%; in [9] (Fig. 4G, Remdesivir 0.00 μM), 0%. In addition, the inhibition at 1.38 µM in data set [9] (Fig. 4D, Omipalisib 0.00 μM) is 4%; in [9] (Fig. 4G, Remdesivir 0.00 μM), 0%. In addition, the inhibition at 2.75 µM in data set [9] (Fig. 4D, Omipalisib 0.00 μM) worked out at 6%; in data set [9] (Fig. 4G, Remdesivir 0.00 μM), 0%. The inhibition at 5.5 µM is 11% in [9] (Fig. 4D, Omipalisib 0.00 μM) and 10% in data set [9] (Fig. 4G, Remdesivir 0.00 μM). The inhibition at 11 µM in data set [9] (Fig. 4D, Omipalisib 0.00 μM) amounted to 91%; in data set [9] (Fig. 4G, Remdesivir 0.00 μM), 93%. Further, the inhibition at 22.01 µM in [9] (Fig. 4D, Omipalisib 0.00 μM) turned out to be 100%; in [9] (Fig. 4G, Remdesivir 0.00 μM), 100%. Also, the inhibition at 44.02 µM was 92% in data set [9] (Fig. 4D, Omipalisib 0.00 μM) and 87% in data set [9] (Fig. 4G, Remdesivir 0.00 μM). Besides, the viability was found to be 90% in [10] (Fig. 4E, Tipifarnib 0.69 μM, Omipalisib 0.00 μM); 91% in [10] (Fig. 4E, Tipifarnib 1.38 μM, Omipalisib 0.00 μM); 90% in [10] (Fig. 4E, Tipifarnib 2.75 μM, Omipalisib 0.00 μM); 91% in data set [10] (Fig. 4E, Tipifarnib 5.50 μM, Omipalisib 0.00 μM); 76% in data set [10] (Fig. 4E, Tipifarnib 11.00 μM, Omipalisib 0.00 μM); 7% in data set [10] (Fig. 4E, Tipifarnib 22.01 μM, Omipalisib 0.00 μM). The viability in data set [10] (Fig. 4E, Tipifarnib 44.02 μM, Omipalisib 0.00 μM) stood at 0%; in data set [10] (Fig. 4H, Tipifarnib 0.69 μM, Remdesivir 0.00 μM) it was 91%; in data set [10] (Fig. 4H, Tipifarnib 1.38 μM, Remdesivir 0.00 μM), 90%; in data set [10] (Fig. 4H, Tipifarnib 2.75 μM, Remdesivir 0.00 μM), 89%; in [10] (Fig. 4H, Tipifarnib 5.50 μM, Remdesivir 0.00 μM) it was 88%; in [10] (Fig. 4H, Tipifarnib 11.00 μM, Remdesivir 0.00 μM) it was 80%. Further, the viability in [10] (Fig. 4H, Tipifarnib 22.01 μM, Remdesivir 0.00 μM) came to 6%; in [10] (Fig. 4H, Tipifarnib 44.02 μM, Remdesivir 0.00 μM), 0%.
As to `CCN(CC)CCCC(C)Nc1ccnc2cc(Cl)ccc12` (stereo not drawn) [chloroquine], the “antiviral activity against SARS-CoV-2 in Vero cells” value in data set [11] is reported as “showed antiviral activity”.
In the case of `Cc1cccc(C)c1OCC(=O)N[C@@H](Cc1ccccc1)[C@@H](O)C[C@H](Cc1ccccc1)NC(=O)[C@H](C(C)C)N1CCCNC1=O` [lopinavir], the “antiviral activity against SARS-CoV-2 in Vero cells” value in [11] is listed as “showed antiviral activity”.
